Experimental data reported in patent publication US20190142800A1, “SYNERGISTIC ANTIFUNGAL COMPOSITIONS AND METHODS THEREOF” (VYOME THERAPEUTICS LIMITED, priority 2016, published 2019).
Each block holds one molecule with its values, some of them ahead of it.

What was measured:
M. furfur (MTCC 1374) = assay: Lipid assimilation in vitro assay: fatty acids/esters as nutrients for growth of M. furfur; format: cell-based, Malassezia furfur; settings: Sabouraud dextrose agar, after 6 days
Description: Malassezia species are lipophilic unipolar yeasts recognized as commensals of skin that may be pathogenic under certain conditions (Jindo et al 2004: Indian Journal of Medical Microbiology (22: 179). To compare lipid requirements of the fungus most closely associated with dandruff/seborrheic dermatitis, the best studied Malassezia species is M. furfur. Lipid assimilation in vitro assay was designed to investigate lipid effect on growth of M. furfur (MTCC 1374).
Briefly, Sabouraud Dextrose containing low-melt agar was melted, cooled to 38° C. Fatty acids/esters constituents eg, propylene glycol monocaprylate (C-8), capric acid (C-10), caprylic acid (C-8), linoleic acid (C-18), oleic acid (C-18), palmitic acid (C-16), ethyl oleate (C-18), and oils containing fatty acid/esters eg, coconut oil, mustard oil etc., were added to study the growth of the fungus (Kaw Bing CHUA, et al Malaysian J Pathol (2005) 27(2): 99). After solidification, agar plates were streaked with M. furfur innoculum adjusted to appropriate cfu/ml, aseptically. Positive control with 2% olive oil and negative control without fatty substance were also maintained.

[1] = test system: terbinafine resistant Trichophyton interdigitale (GTB-2S); assay: Checkerboard assay on terbinafine resistant Trichophyton interdigitale (GTB-2S); format: cell-based; settings: for MIC: Trichophyton interdigitale, agent alone, Table 7
Procedure: (§1) The synergy is measured by determining the fractional inhibitory concentration (FIC) value of the combination. This experimental set up, called checkerboard method, allows measurement of a desired effect (inhibition of fungal growth in this case) at different combinations of various concentrations of the two agents (antifungal agent and fatty acid/ester). […] No agent is added to the penultimate column on the right and the bottom row. The final column on the right is used for growth control (only inoculum in broth) and sterility control (broth alone, no inoculum). […] FIC values for both agents in a particular well were calculated in this way followed by determination of the FIC index (sum of the FICs of each drug in the concerned well). […] Agents Chemother.
(§2) Using the checkerboard layout experimental setup described above (FIG. 1A), various medium-chain fatty acids were tested for their ability to potentiate the activity of a known antifungal agent. Concentrations above and below the MIC of each test agent were tested using serial dilution. The same procedure was expanded to test combinations of various medium-chain fatty acids C-1 to C-14 (such caprylic acid, undecylenic acid and lauric acid) and esters thereof, with antifungal agents from various classes including azoles, allylamines, benzylamines, zinc pyrithione and piroctone olamine against both susceptible and resistant Trichophyton spp. (filamentous fungus) and Candida spp. (yeast).
(§3) Potentiation of the activity of antimycotic agents using ester derivatives of medium chain fatty acids was tested in a standard, well accepted in vitro assay system to check for synergy. This experimental set up, called checkerboard method, allows measurement of a desired effect (inhibition of fungal growth in this case) at different combinations of various concentrations of two agents. A chosen medium chain fatty acid (C-1 to C-14) or its ester derivative was tested for its ability to potentiate the activity of a known antifungal agent (various classes) using the checkerboard layout. Various concentrations above and below the MIC of each test agent were tested using serial dilution in Sabouraud dextrose broth. […] FIC values for both test agents in a particular well are calculated in this way followed by determination of the FIC index (sum of the FICs of each drug in the concerned well).

C. albicans (ATCC-90028) = assay: Checkerboard assay on C. albicans (ATCC-90028); format: cell-based, Candida albicans; settings: for MIC: Candida albicans, ATCC90028, agent alone, Table 8
Procedure: The synergy is measured by determining the fractional inhibitory concentration (FIC) value of the combination. This experimental set up, called checkerboard method, allows measurement of a desired effect (inhibition of fungal growth in this case) at different combinations of various concentrations of the two agents (antifungal agent and fatty acid/ester). […] No agent is added to the penultimate column on the right and the bottom row. The final column on the right is used for growth control (only inoculum in broth) and sterility control (broth alone, no inoculum). […] FIC value for each agent in a particular well of the checkerboard layout was calculated by dividing the agent concentration in that well by the established MIC value of the agent against the test organism (Hsieh et al., Synergy assessed by checkerboard: A critical Analysis, Diagn. Microbiol. Infect Dis. (1993) 16:343-349). FIC values for both agents in a particular well were calculated in this way followed by determination of the FIC index (sum of the FICs of each drug in the concerned well). […] Agents Chemother. (2010) 54(2): 602-609].
as §2
Potentiation of the activity of antimycotic agents using ester derivatives of medium chain fatty acids was tested in a standard, well accepted in vitro assay system to check for synergy. This experimental set up, called checkerboard method, allows measurement of a desired effect (inhibition of fungal growth in this case) at different combinations of various concentrations of two agents. A chosen medium chain fatty acid (C-1 to C-14) or its ester derivative was tested for its ability to potentiate the activity of a known antifungal agent (various classes) using the checkerboard layout. Various concentrations above and below the MIC of each test agent were tested using serial dilution in Sabouraud dextrose broth. […] FIC value for a drug in a particular well of the checkerboard layout is calculated by dividing the drug concentration in that well by the established MIC value of the drug against the test organism (Hsieh et al., Synergy assessed by checkerboard: A critical Analysis, Diagn. Microbiol. Infect Dis. (1993) 16:343-349). FIC values for both test agents in a particular well are calculated in this way followed by determination of the FIC index (sum of the FICs of each drug in the concerned well).

[2] = test system: azole resistant C. albicans MTCC 227; assay: Checkerboard assay on azole resistant C. albicans MTCC 227; format: cell-based, Candida albicans; settings: for MIC: Candida albicans, MTCC227, agent alone
Procedure: as §1, §2, §3

[3] = agent's MIC in combination luliconazole + glyceryl monocaprylate
[4] = combination luliconazole + glyceryl monocaprylate
[5] = agent's MIC in combination luliconazole + caprylic acid
[6] = combination luliconazole + caprylic acid
[7] = Table 9, caprylic acid (C8) series
[8] = in combination with caprylic acid
[9] = in combination with glyceryl monocaprylate
[10] = antifungal in combination with caprylic acid
[11] = antifungal in combination with lauric acid
[12] = antifungal in combination with propylene glycol monocaprylate
[13] = antifungal in combination with undecylenic acid

Structure (SMILES): CCCCCCCCCCCCCCCC(=O)O [palmitic acid]
growth of M. furfur on culture media containing the fatty acid/ester or oil (M. furfur (MTCC 1374)): confluent growth

MIC [1]: 15.6 µg/mL
Combination MIC ([1]; agent's MIC in combination terbinafine or butenafine + glyceryl monocaprylate): 7.812 µg/mL
MIC (C. albicans (ATCC-90028)): 500 µg/mL
Combination MIC (C. albicans (ATCC-90028); [3]): 31.25 µg/mL
MIC ([2]; Table 11, glyceryl monocaprylate series): 1250 µg/mL
Combination MIC ([2]; agent's MIC in combination antifungal + glyceryl monocaprylate (partner: other agent of same combination no.)): 312.5 µg/mL
Structure (SMILES): CCCCCCCC(=O)OCC(O)CO (stereo not drawn) [Glyceryl monocaprylate]
FIC ([1]; combination terbinafine or butenafine + glyceryl monocaprylate): 0.5
FIC (C. albicans (ATCC-90028); [4]): 0.0625
FIC ([2]; combination antifungal + glyceryl monocaprylate): 0.25

Structure (SMILES): CCCCC/C=C\C/C=C\CCCCCCCC(=O)O [linoleic acid]
growth of M. furfur on culture media containing the fatty acid/ester or oil (M. furfur (MTCC 1374)): confluent growth

Structure (SMILES): CCCCCCCCCC(=O)O [capric acid]
growth of M. furfur on culture media containing the fatty acid/ester or oil (M. furfur (MTCC 1374)): no growth

MIC [1]: 15.6 µg/mL
Combination MIC ([1]; agent's MIC in combination terbinafine or butenafine + caprylic acid): 7.812 µg/mL
MIC (C. albicans (ATCC-90028)): 125 µg/mL
Combination MIC (C. albicans (ATCC-90028); [5]): 31.25 µg/mL
MIC [2, 7]: 250 µg/mL
Structure (SMILES): CCCCCCCC(=O)O [Caprylic acid]
FIC ([1]; combination terbinafine or butenafine + caprylic acid): 0.5
FIC (C. albicans (ATCC-90028); [6]): 0.25
growth of M. furfur on culture media containing the fatty acid/ester or oil (M. furfur (MTCC 1374)): no growth

MIC (C. albicans (ATCC-90028)): 7.5 µg/mL
Combination MIC (C. albicans (ATCC-90028); [5]): 0.117 µg/mL
Combination MIC (C. albicans (ATCC-90028); [3]): 0.117 µg/mL
MIC [2, 7]: 8 µg/mL
MIC ([2]; Table 10, propylene glycol monocaprylate series): 8 µg/mL
MIC ([2]; Table 12, undecylenic acid (C11) series): 8 µg/mL
MIC ([2]; Table 13, lauric acid (C12) series): 8 µg/mL
Combination MIC ([2]; agent's MIC in combination antifungal + caprylic acid (partner: other agent of same combination no.)): 0.5 µg/mL
Combination MIC ([2]; agent's MIC in combination antifungal + lauric acid (partner: other agent of same combination no.)): 1 µg/mL
Combination MIC ([2]; agent's MIC in combination antifungal + propylene glycol monocaprylate (partner: other agent of same combination no.)): 0.5 µg/mL
Combination MIC ([2]; agent's MIC in combination antifungal + undecylenic acid (partner: other agent of same combination no.)): 1 µg/mL
Structure (SMILES): N#C/C(=C1/SC[C@@H](c2ccc(Cl)cc2Cl)S1)n1ccnc1 [Luliconazole]
FIC (C. albicans (ATCC-90028); [6]): 0.015
FIC (C. albicans (ATCC-90028); [4]): 0.0156
FIC index (C. albicans (ATCC-90028); [8]): 0.265
Interaction (C. albicans (ATCC-90028); [8]): Synergistic (Combinations that gave FIC indices less than 1 were designated “synergistic”)
FIC index (C. albicans (ATCC-90028); [9]): 0.0781
Interaction (C. albicans (ATCC-90028); [9]): Synergistic (Combinations that gave FIC indices less than 1 were designated “synergistic”)
FIC index [2, 10]: 0.3
Interaction [2, 10]: Synergistic (Combinations that gave FIC indices less than 1 were designated “synergistic”)
FIC index [2, 11]: 0.25
Interaction [2, 11]: Synergistic (Combinations that gave FIC indices less than 1 were designated “synergistic”)
FIC index [2, 12]: 0.187
Interaction [2, 12]: Synergistic (Combinations that gave FIC indices less than 1 were designated “synergistic”)
FIC index [2, 13]: 0.187
Interaction [2, 13]: Synergistic (Combinations that gave FIC indices less than 1 were designated “synergistic”)
FIC ([2]; combination antifungal + caprylic acid): 0.062
FIC ([2]; combination antifungal + lauric acid): 0.125
FIC ([2]; combination antifungal + propylene glycol monocaprylate): 0.0625
FIC ([2]; combination antifungal + undecylenic acid): 0.125

Structure (SMILES): CCCCCCCC/C=C\CCCCCCCC(=O)O [oleic acid]
growth of M. furfur on culture media containing the fatty acid/ester or oil (M. furfur (MTCC 1374)): confluent growth

Structure (SMILES): CCCCCCCC/C=C\CCCCCCCC(=O)OCC [ethyl oleate]
growth of M. furfur on culture media containing the fatty acid/ester or oil (M. furfur (MTCC 1374)): confluent growth
